Measurements from publication PMC10313180, “Structure snapshots reveal the mechanism of a bacterial membrane lipoprotein N-acyltransferase” (Science Advances, 2023).
No end group written: not given here. *: point of attachment. dipalmitoylglyceryl = dipalmitoylglyceryl (diacylglyceryl moiety on the cysteine); Palmitoyl = CCCCCCCCCCCCCCCC(=O)*

Columns and labels:
LntPae [1] = target: T1, LntPae (Pseudomonas aeruginosa, UniProt Q9ZI86); test: TLC of FP2 to FP3 conversion; type: biochemical; conditions: acyl donor, HA-treated enzyme; 500 uM GPL, 150 uM FP2, pH 7.5, 37 C, 90 min
T1 construct: gene lnt; full length, N-terminal thrombin-cleavable His6 tag, pET28a, expressed in E. coli C41(DE3); membrane protein in LMNG micelles or cubic mesophase
T1 sequence (Q9ZI86 1-511): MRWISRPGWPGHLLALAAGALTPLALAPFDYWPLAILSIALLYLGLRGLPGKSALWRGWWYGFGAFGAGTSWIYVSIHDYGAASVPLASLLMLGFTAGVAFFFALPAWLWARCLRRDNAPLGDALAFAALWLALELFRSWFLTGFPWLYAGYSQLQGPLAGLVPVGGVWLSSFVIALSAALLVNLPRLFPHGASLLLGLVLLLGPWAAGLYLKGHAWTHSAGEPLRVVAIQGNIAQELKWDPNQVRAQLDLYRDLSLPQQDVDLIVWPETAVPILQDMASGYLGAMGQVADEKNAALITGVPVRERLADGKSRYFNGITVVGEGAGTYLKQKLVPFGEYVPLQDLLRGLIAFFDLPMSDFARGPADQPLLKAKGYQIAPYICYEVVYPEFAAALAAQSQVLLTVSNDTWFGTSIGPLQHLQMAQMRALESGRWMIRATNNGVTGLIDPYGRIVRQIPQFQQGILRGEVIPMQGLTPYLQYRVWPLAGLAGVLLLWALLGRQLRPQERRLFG

LntEco [2] = target: T2, LntEco (Escherichia coli, UniProt P23930); test: TLC of FP2 to FP3 conversion; type: biochemical; conditions: acyl donor, HA-treated enzyme; 500 uM GPL, 150 uM FP2, pH 7.5, 37 C, 90 min
T2 construct: gene lnt; full length, N-terminal thrombin-cleavable His6 tag, pET28a, expressed in E. coli C43(DE3); membrane protein in LMNG or DDM micelles; 57 kDa; HA-treated for GPL specificity assay

LntEco [3] = target: T2, LntEco; test: X-ray crystallography (in surfo); type: binding; conditions: covalent; dithiocarbamate at catalytic Cys387; lyso-PE also bound; 2.66 A
LntPae [4] = target: T1, LntPae; test: X-ray crystallography (in meso); type: binding; conditions: covalent; at catalytic Cys382; two monooleins in pocket; 2.6 A
[5] = target: T3, LntEco Cys387Ala (apolipoprotein N-acyltransferase from E. coli, inactive mutant) (E. coli, UniProt P23930 1-512, Cys387Ala); test: cryo-EM structure; Lnt mutant (16 mg/ml) incubated with Pam3CSK4 or FP2 (10 mg/ml in DMSO) for 1 hour at 21°C, then Superdex 200 10/300 Increase in 20 mM sodium citrate pH 6, 150 mM NaCl, 0.001% LMNG; protein in a detergent micelle; conditions: both partners purified
T3 construct: Apolipoprotein N-acyltransferase Lnt, E. coli, 57-kDa membrane protein; gene synthesized and cloned into pET28a (Nde I/Xho I); residues counted in E. coli numbering; The His6 tag is thrombin-cleavable; no cleavage step is described; In a detergent micelle (LMNG); also called Lnt Cys387Ala; C387A; source: E. coli C43(DE3), purified (Ni-NTA, Superdex 200) in LMNG

Molecule: CCCCCCCC/C=C\CCCCCCCC(=O)O[C@H](COC(=O)CCCCCCCCCCCCCCC)COP(=O)(O)OCCN [POPE, palmitoyloleoylphosphatidylethanolamine]
- TLC of FP2 to FP3 conversion (LntPae [1]): (POPE) were effective acyl donors for LntEco and LntPae
- TLC of FP2 to FP3 conversion (LntEco [2]): (POPE) were effective acyl donors for LntEco and LntPae

Molecule: CCCCCCCC/C=C\CCCCCCCC(=O)O[C@H](COC(=O)CCCCCCCCCCCCCCC)COP(=O)(O)OCC(O)CO (stereo partly shown) [POPG, palmitoyloleoylphosphatidylglycerol]
- TLC of FP2 to FP3 conversion (LntPae [1]): (POPE) were effective acyl donors for LntEco and LntPae
- TLC of FP2 to FP3 conversion (LntEco [2]): palmitoyloleoylphosphatidylglycerol (POPG) and palmitoyloleoylphosphatidylethanolamine (POPE) were effective acyl donors for LntEco

Molecule: CCCCCCCCCCCCCCN=C=S [TITC, tetradecyl-1-isothiocyanate]
- X-ray crystallography (in surfo) (LntEco [3]): Crystals of the TITC-modified protein (Lnt-TITC), grown in the presence of E. coli GPLs
- X-ray crystallography (in meso) (LntPae [4]): a structure of the TITC-modified LntPae was obtained with two monooleins in the binding pocket

B1: Pam3CSK4, Cys(Pam3)-Ser-(Lys)4 (peptide)
peptide: Palmitoyl-C(dipalmitoylglyceryl)SKKKK
notes: Printed in three-letter code: Cys-Ser-Lys-Lys-Lys-Lys; triacylated bacterial lipoprotein peptide analog; Triacylated lipopeptide; also called TA-BLPtide product; BLPtide; source: synthetic peptide (commercial or in-house synthesized BLP peptide analog)
- binding result [5]: binds
